Structures can show the parent of a compound that is named as a salt.
molecular target: YKL-40 (YKL-40-histag, chitin binding site) (Homo sapiens (Human), UniProt P36222); assay: YKL-40:4 assay, competitive chitin binding site AlphaScreen; settings: not given
Sequence (P36222 22-383): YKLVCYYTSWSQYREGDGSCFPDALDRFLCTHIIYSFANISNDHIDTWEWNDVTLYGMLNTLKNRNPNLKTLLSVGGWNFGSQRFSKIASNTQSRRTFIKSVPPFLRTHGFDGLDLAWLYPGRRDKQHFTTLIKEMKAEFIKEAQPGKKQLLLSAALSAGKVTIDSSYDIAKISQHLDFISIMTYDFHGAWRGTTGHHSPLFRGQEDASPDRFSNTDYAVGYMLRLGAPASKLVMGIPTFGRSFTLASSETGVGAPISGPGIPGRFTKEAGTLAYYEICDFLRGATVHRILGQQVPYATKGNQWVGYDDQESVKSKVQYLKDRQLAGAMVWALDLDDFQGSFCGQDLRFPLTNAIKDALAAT

Q: Which IC50 does the source give for `Cc1nsc(N2CCC(N3C[C@H](C)OC[C@@H]3Cc3ccc(Cl)cc3)CC2)n1` [Compound 180, (2S,5S)-5-(4-chlorobenzyl)-2-methyl-4-(1-(3-methyl-1,2,4-thiadiazol-5-yl)piperidin-4-yl)morpholine 2,2,2-trifluoroacetate] here?
A: The IC50 was over 10 µM.

Q: Which IC50 does the source give for `C[C@H]1CN(C2C[C@H]3CC[C@@H](C2)N3c2cc(Cl)ccn2)[C@@H](Cc2ccc(Cl)cc2)CO1` (stereo partly drawn) [Compound 58, (2S,5S)-5-(4-chlorobenzyl)-4-((1R,5S)-8-(4-chloropyridin-2-yl)-8-azabicyclo[3.2.1]octan-3-yl)-2-methylmorpholine 2,2,2-trifluoroacetate] here?
A: Its IC50 is over 10 µM.

Q: For `C[C@H]1CN(C2CCN(c3ccnc(N)n3)CC2)[C@@H](Cc2ccc(Cl)cc2)CO1` [Compound 67, 4-(4-((2S,5S)-5-(4-chlorobenzyl)-2-methylmorpholino)piperidin-1-yl)pyrimidin-2-amine 2,2,2-trifluoroacetate], which IC50 is on record?
A: Its IC50 is over 10 µM.

Q: For `C[C@H]1CN(C2CCN(c3ncccc3O)CC2)[C@@H](Cc2ccc(Cl)cc2)CO1` [Compound 160, 2-(4-((2S,5S)-5-(4-chlorobenzyl)-2-methylmorpholino)piperidin-1-yl)pyridin-3-ol 2,2,2-trifluoroacetate], which IC50 is on record?
A: Its IC50 is over 10 µM.

Q: Which IC50 does the source give for `C[C@H]1CN(C2CCN(C(=O)OC(C)(C)C)CC2)[C@@H](Cc2ccc(Cl)cc2)CO1` [Compound 8d, tert-butyl 4-((2S,5S)-5-(4-chlorobenzyl)-2-methylmorpholino)piperidine-1-carboxylate] here?
A: The IC50 was over 10 µM.

Q: How did the IC50 turn out when `C[C@H]1CN(C2CCN(c3cc(Cl)ccc3C#N)CC2)[C@@H](Cc2ccc(Cl)cc2)CO1` [Compound 115, 4-chloro-2-(4-((2S,5S)-5-(4-chlorobenzyl)-2-methylmorpholino)piperidin-1-yl)benzonitrile 2,2,2-trifluoroacetate] was run?
A: The IC50 was over 10 µM.

Q: Which IC50 does the source give for `C[C@H]1CN(C2CCN(c3ccncn3)CC2)[C@@H](Cc2ccc(Cl)cc2)CO1` [Example 26, (2S,5S)-5-(4-chlorobenzyl)-2-methyl-4-(1-(pyrimidin-4-yl)piperidin-4-yl)morpholi-ne 2,2,2-trifluoroacetate] here?
A: Its IC50 is over 10 µM.

Q: `C[C@H]1CN(C2CCN(c3noc(C(F)(F)F)n3)CC2)[C@@H](Cc2ccc(Cl)cc2)CO1` [Compound 164, (2S,5S)-5-(4-chlorobenzyl)-2-methyl-4-(1-(5-(trifluoromethyl)-1,2,4-oxadiazol-3-yl)piperidin-4-yl)morpholine 2,2,2-trifluoroacetate] was tested. Which IC50 did it give?
A: Its IC50 is over 10 µM.

Q: Which IC50 does the source give for `C[C@H]1CN(C2CCN(c3c(F)cccc3C#N)CC2)[C@@H](Cc2ccc(Cl)cc2)CO1` [Compound 118, 2-(4-((2S,5S)-5-(4-chlorobenzyl)-2-methylmorpholino)piperidin-1-yl)-3-fluorobenzonitrile 2,2,2-trifluoroacetate] here?
A: The IC50 was over 10 µM.

Q: Which IC50 does the source give for `C[C@H]1CN(C2CCN(c3noc(=O)[nH]3)CC2)[C@@H](Cc2ccc(Cl)cc2)CO1` [Compound 165, 3-(4-((2S,5S)-5-(4-chlorobenzyl)-2-methylmorpholino)piperidin-1-yl)-1,2,4-oxadiazol-5(4H)-one 2,2,2-trifluoroacetate] here?
A: Its IC50 is over 10 µM.

Q: For `C[C@H]1CN(C2CCN(c3ncc(C(F)(F)F)o3)CC2)[C@@H](Cc2ccc(Cl)cc2)CO1` [Compound 168, (2S,5S)-5-(4-chlorobenzyl)-2-methyl-4-(1-(5-(trifluoromethyl)oxazol-2-yl)piperidin-4-yl)morpholine 2,2,2-trifluoroacetate], which IC50 is on record?
A: Its IC50 is over 10 µM.

Q: Which IC50 does the source give for `C[C@H]1CN(C2CCN(c3ncnc(O)n3)CC2)[C@@H](Cc2ccc(Cl)cc2)CO1` [Compound 170] here?
A: The IC50 was over 10 µM.

Q: With `C[C@H]1CN(C2CCN(c3cccnc3)CC2)[C@@H](Cc2ccc(Cl)cc2)CO1` [Example 27, (2S,5S)-5-(4-chlorobenzyl)-2-methyl-4-(1-(pyridin-3-yl)piperidin-4-yl)morpholine 2,2,2-trifluoroacetate] as the molecule, how does the IC50 read?
A: Its IC50 is over 10 µM.

Q: `C[C@H]1CN(C2CCN(c3nccc4ccccc34)CC2)[C@@H](Cc2ccc(Cl)cc2)CO1` [Compound 116, (2S,5S)-5-(4-chlorobenzyl)-4-(1-(isoquinolin-1-yl)piperidin-4-yl)-2-methylmorpholine 2,2,2-trifluoroacetate] was tested. Which IC50 did it give?
A: Its IC50 is over 10 µM.

Q: With `C[C@H]1CN(C2CCN(c3ccccc3F)CC2)[C@@H](Cc2ccc(Cl)cc2)CO1` [Compound 126, (2S,5S)-5-(4-chlorobenzyl)-4-(1-(2-fluorophenyl)piperidin-4-yl)-2-methylmorpholine 2,2,2-trifluoroacetate] as the molecule, how does the IC50 read?
A: The IC50 was over 10 µM.

Q: Which IC50 does the source give for `CC(C)C[C@H]1CN(C2CCN(c3ccccn3)CC2)[C@@H](Cc2ccc(Cl)cc2)CN1CC(=O)OC(C)(C)C` [Compound 2g, tert-butyl 2-((2S,5S)-5-(4-chlorobenzyl)-2-isobutyl-4-(1-(pyridin-2-yl)piperidin-4-yl)piperazin-1-yl)acetate] here?
A: Its IC50 is over 10 µM.

Q: Which IC50 does the source give for `C[C@H]1CN(C2CCN(c3nnn[nH]3)CC2)[C@@H](Cc2ccc(Cl)cc2)CO1` [Compound 166, (2S,5S)-4-(1-(1H-tetrazol-5-yl)piperidin-4-yl)-5-(4-chlorobenzyl)-2-methylmorpholine 2,2,2-trifluoroacetate] here?
A: The IC50 was over 10 µM.

Q: Which IC50 does the source give for `Cc1nnc(N2CCC(N3C[C@H](C)OC[C@@H]3Cc3ccc(Cl)cc3)CC2)s1` [Compound 182, (2S,5S)-5-(4-chlorobenzyl)-2-methyl-4-(1-(5-methyl-1,3,4-thiadiazol-2-yl)piperidin-4-yl)morpholine 2,2,2-trifluoroacetate] here?
A: The IC50 was over 10 µM.

Q: With `C[C@H]1CN(C2CCN(c3cc(C(N)=O)ccn3)CC2)[C@@H](Cc2ccc(Cl)cc2)CO1` [Compound 132, 2-(4-((2S,5S)-5-(4-chlorobenzyl)-2-methylmorpholino)piperidin-1-yl)isonicotinamide 2,2,2-trifluoroacetate] as the molecule, how does the IC50 read?
A: Its IC50 is over 10 µM.

Q: How did the IC50 turn out when `C[C@H]1CN(C2CCN(c3nccc(C(=O)O)c3F)CC2)[C@@H](Cc2ccc(Cl)cc2)CO1` [Compound 128, 2-(4-((2S,5S)-5-(4-chlorobenzyl)-2-methylmorpholino)piperidin-1-yl)-3-fluoroisonicotinic acid 2,2,2-trifluoroacetate] was run?
A: Its IC50 is over 10 µM.

Q: How did the IC50 turn out when `C[C@H]1CN(C2CCN(c3cccc(C#N)n3)CC2)[C@@H](Cc2ccc(Cl)cc2)CO1` [Example 18, 6-(4-((2S,5S)-5-(4-chlorobenzyl)-2-methylmorpholino)piperidin-1-yl)picolinonitrile 2,2,2-trifluoroacetate] was run?
A: Its IC50 is over 10 µM.

Q: For `O=C1NCCN(C2CCN(c3ccccn3)CC2)[C@H]1Cc1ccc(Cl)cc1` [Compound 149, (S)-3-(4-chlorobenzyl)-4-(1-(pyridin-2-yl)piperidin-4-yl)piperazin-2-one 2,2,2-trifluoroacetate], which IC50 is on record?
A: The IC50 was over 10 µM.

same assay, conditions: competition with biotinylated compound 4, 20 nM; YKL-40-histag 2.5 nM; read-out: YKL-40:4, IC50/Kd (IC50 range)

Q: For `COC(=O)c1ccnc(N2CCC(N3C[C@H](C)OC[C@@H]3Cc3ccc(Cl)cc3)CC2)c1` [Compound 124, methyl 2-(4-((2S,5S)-5-(4-chlorobenzyl)-2-methylmorpholino)piperidin-1-yl)isonicotinate], which IC50 is on record?
A: Its IC50 is over 10 µM.

Q: For `C[C@H]1CN(C2CCN(c3cncc(C(F)(F)F)n3)CC2)[C@@H](Cc2ccc(Cl)cc2)CO1` [Compound 153, (2S,5S)-5-(4-chlorobenzyl)-2-methyl-4-(1-(6-(trifluoromethyl)pyrazin-2-yl)piperidin-4-yl)morpholine hydrochloride], which IC50 is on record?
A: The IC50 was over 10 µM.

Q: For `COC(=O)c1ccnc(N2CCC(N3C[C@H](C)OC[C@@H]3Cc3ccc(Cl)cc3)CC2)c1F` [Compound 122, methyl 2-(4-((2S,5S)-5-(4-chlorobenzyl)-2-methylmorpholino)piperidin-1-yl)-3-fluoroisonicotinate], which IC50 is on record?
A: The IC50 was over 10 µM.

Q: How did the IC50 turn out when `COC(=O)c1ccnc(F)c1N1CCC(N2C[C@H](C)OC[C@@H]2Cc2ccc(Cl)cc2)CC1` [Compound 121, methyl 3-(4-((2S,5S)-5-(4-chlorobenzyl)-2-methylmorpholino)piperidin-1-yl)-2-fluoroisonicotinate] was run?
A: The IC50 was over 10 µM.

Q: With `C[C@H]1CN(C2CCN(c3ccccc3)CC2)[C@@H](Cc2ccc(Cl)cc2)CO1` [Example 37, (2S,5S)-5-(4-chlorobenzyl)-2-methyl-4-(1-phenylpiperidin-4-yl)morpholine dihydro-chloride] as the molecule, how does the IC50 read?
A: The IC50 was over 10 µM.

Q: `Cc1cccc(N2CCC(N3C[C@H](C)OC[C@@H]3Cc3ccc(Cl)cc3)CC2)n1` [Compound 135, (2S,5S)-5-(4-chlorobenzyl)-2-methyl-4-(1-(6-methylpyridin-2-yl)piperidin-4-yl)morpholine hydrochloride] was tested. Which IC50 did it give?
A: Its IC50 is over 10 µM.

Q: For `CC(C)C[C@H]1CN(C2CCN(c3ccccn3)CC2)[C@@H](Cc2ccc(Cl)cc2)CN1C(=O)OC(C)(C)C` [Compound 2e, tert-butyl (2S,5S)-5-(4-chlorobenzyl)-2-isobutyl-4-(1-(pyridin-2-yl)piperidin-4-yl)piperazine-1-carboxylate], which IC50 is on record?
A: Its IC50 is over 10 µM.

Q: For `O=C1COC[C@H](Cc2ccc(Cl)cc2)N1C1CCN(c2ccccn2)CC1` [Compound 147, (S)-5-(4-chlorobenzyl)-4-(1-(pyridin-2-yl)piperidin-4-yl)morpholin-3-one hydrochloride], which IC50 is on record?
A: Its IC50 is over 10 µM.

molecular target: YKL-40 (YKL-40: heparan sulfate interaction) (Homo sapiens (Human), UniProt P36222); assay: YKL-40:HS assay, heparan sulfate interference AlphaScreen; settings: read-out: YKL-40:HS, IC50/max % inh (max % inh)
Sequence (P36222 22-383): as above
Experimental: Positive and negative control wells received just 8 uL of MST buffer containing 2% DMSO without inhibitor in the 2nd step (ii). In addition, negative control received just 8 uL of MST buffer containing 0% DMSO without YKL-40-histag in the 3nd step (iii). Finally, the plate luminescence was excited at 680 nm and the emission read at 520-620 nm using the AlphaScreen module in the The Spark™ 1 μM multimode microplate reader (Tecan Trading AG, Mannedorf, Switzerland). Inhibition percentage and IC50 values were determined using GraphPad Prism 7.0 software (GraphPad Software, San Diego, CA, USA).

Q: For `CNC(=O)CN1C[C@H](Cc2ccc(Cl)cc2)N(C2CCN(c3ccccn3)CC2)C[C@@H]1C(C)C` [Compound 106, 2-((2S,5S)-5-(4-chlorobenzyl)-2-isopropyl-4-(1-(pyridin-2-yl)piperidin-4-yl)piperazin-1-yl)-N-methylacetamide 2,2,2-trifluoroacetate], which inhibition is on record?
A: Its inhibition is 27%.

Q: How did the inhibition turn out when `Cc1cnc(N2CCC(N3C[C@H](C)OC[C@@H]3Cc3ccc(Cl)cc3)CC2)s1` [Compound 185, (2S,5S)-5-(4-chlorobenzyl)-2-methyl-4-(1-(5-methylthiazol-2-yl)piperidin-4-yl)morpholine 2,2,2-trifluoroacetate] was run?
A: The inhibition was 36%.

Q: Which inhibition does the source give for `CN1C[C@H](Cc2ccc(Cl)cc2)N(C2CCN(c3cc(Cl)ccn3)CC2)C[C@@H]1CN1CCOCC1` [Compound 51, 4-(((2S,5S)-5-(4-chlorobenzyl)-4-(1-(4-chloropyridin-2-yl)piperidin-4-yl)-1-methyl-piperazin-2-yl)methyl)morpholine hydrochloride] here?
A: Its inhibition is 52%.
